Patent US11352352B2, “Aminopyrimidine compound, preparation method therefor and use thereof” (BEIJING ADAMADLE BIOTECHNOLOGY LIMITED LIABILITY COMPANY, priority 2017, dated 2022)

How the values were obtained:
Assay in all cases: Cell proliferation inhibition experiment, CellTiter-Glo (CTG) method
Assay type in all cases: cell-based
NCI-H1975 = details: for IC50: Homo sapiens, NCI-H1975, 72 h, NCI-H1975 cells, CTG, 3 days; for A-431/NCI-H1975 Selectivity: ratio of A-431 IC50 to NCI-H1975 IC50
Procedure: (§1) Cell Proliferation Inhibition Experiment
(§2) Compounds were tested in the selected cell lines, and solvent is set as control, nine concentrations were detected with three parallel wells for each concentration.
(§3) 2. Reagents and Materials • 1) fetal bovine serum FBS (GIBCO, Cat #10099-141) • 2) CellTiter-Glo® Luminescent Cell Viability Assay (Promega, Cat #G7572) • 3) 96-well plate with flat clear bottom, black wall plates (Corning®, Cat #3340)
(§4) The first day: Incubation and plant of cells • 1) Cells in logarithmic growth phase were harvested and counted by cell counter. Cell viability was detected by trypan blue exclusion assay to ensure that the viability of each cell line was above 90%. • 2) Cell concentration was adjusted by diluting complete culture medium, and 90 μL cell suspension was added to a 96-well plate (T0 plate and drug plate to be tested) to make the cell density reach the specified concentration. • 3) Cells in 96-well plate were incubated overnight at condition of 37° C., 5% CO2 and 95% humidity.
(§5) The second day: Reading T0 plate • 1) 10 μL culture medium was added to T0 plate. • 2) CTG reagent was melt, while the cell plate was balanced to room temperature for 30 minutes. • 3) The same volume of CTG solution was added to each well. • 4) The cell plate was vibrated for 2 minutes on an orbital shaker to lyze the cells. • 5) The cell plate was placed at room temperature for 10 minutes to stabilize the cold light signal. • 6) The cold light value was read with EnVision.
(§6) Drug Addition • 1) Drug dilution. The compounds to be tested were dissolved and packaged, then a gradient elution was performed to obtain a solution diluted 10 times. • 2) Drug addition. […] drug solution was added into each well of the 96-well plate, which was inoculated cells, three parallel wells were set for each cell concentration.
(§7) The third day: reading plate at the terminal • 1) CTG reagent was melt, while the cell plate was balanced to room temperature for 30 minutes. • 2) The same volume of CTG solution was added to each well. • 3) The cell plate was vibrated for 2 minutes on an orbital shaker to lyze the cells. • 4) The cell plate was placed at room temperature for 10 minutes to stabilize the cold light signal. • 5) The cold light value was read with EnVision
(§8) Data were analyzed using GraphPad Prism 5.0 software, and non-linear S curve regression was used for fitting the data to give a dose-effect curve, IC50 value was calculated accordingly. Cell Survival Rate (%)=(Lumdrugs−Lumcontrol)/(Lumcell−Lumcontrol)×100%.

PC-9 = details: Homo sapiens, PC-9, 72 h, PC-9 cells, 3 days
Procedure: as §1, §2, §3, §4, §5, §6, §7, §8

A-431 = details: Homo sapiens, A-431, 72 h, A-431 cells, 3 days
Procedure: as §1, §2, §3, §4, §5
Drug Addition • 1) Drug dilution. The compounds to be tested were dissolved and packaged, then a gradient elution was performed to obtain a solution diluted 10 times. • 2) Drug addition. […] drug solution was added into each well of the 96-well plate, which was inoculated cells, three parallel wells were set for each cell concentration. The highest concentration of the compounds to be tested on A-431 was 30 μM, nine concentrations was set with 3 times dilution; while the highest concentration on NCI-H1975 and PC-9 was 1.111 μM, 9 concentrations was set with 3 times dilution. • 3) Culture. Cells in 96-well plates in which drugs have been added were cultured at condition of 37° C., 5% CO2 and 95% humidity for 3 days, and then CTG assay was performed respectively.
as §7, §8

IC50 (NCI-H1975) [µM] | IC50 (PC-9) [µM] | IC50 (A-431) [µM] | Compound | A-431/NCI-H1975 Selectivity (NCI-H1975)
0.0835 | 0.0317 | 1.06 | C=CC(=O)Nc1cc(Nc2cc(-c3ccc4c(cnn4CC)c3)ncn2)c(OC(F)F)cc1N1C[C@@H](C)N(C)[C@@H](C)C1 [compound 98] | 12.7
0.0073 | 0.0195 | 0.633 | C=CC(=O)Nc1cc(Nc2cc(-c3ccc4c(cnn4C)c3)ncn2)c(OC)cc1N1CCC(N2CCN(C(C)C)CC2)CC1 [compound 101] | –
0.0141 | 0.0125 | 0.986 | C=CC(=O)Nc1cc(Nc2cc(-c3ccc4c(cnn4C)c3)ncn2)c(OC)cc1N1CCOCC1 [compound 102] | 70.0
0.0146 | 0.0179 | 0.778 | C=CC(=O)Nc1cc(Nc2cc(-c3ccc4c(cnn4C)c3)ncn2)c(OC)cc1N1CCN(CC2CC2)CC1 [compound 105] | 53.3
0.0165 | 0.0178 | 1.29 | C=CC(=O)Nc1cc(Nc2cc(-c3ccc4c(cnn4C)c3)ncn2)c(OC)cc1N1CCC2(CC1)COC2 [compound 107] | 78.2
0.0323 | 0.035 | 1.43 | C=CC(=O)Nc1cc(Nc2nccc(-c3ccc4c(cnn4C)c3)n2)c(OC)cc1N(C)C1CCN(C)C1 (stereo not shown) [compound 109] | 44.4
0.008 | 0.0069 | 0.599 | C=CC(=O)Nc1cc(Nc2cc(-c3ccc4c(cnn4C)c3)ncn2)c(OC)cc1N(C)[C@@H]1CCN(C)C1 [compound 110] | –
0.018 | 0.0168 | 0.948 | C=CC(=O)Nc1cc(Nc2cc(-c3ccc4c(cnn4C)c3)ncn2)c(OC(F)F)cc1N(C)C1CCN(C)C1 (stereo not shown) [compound 111] | 52.7
0.009 | 0.0097 | 0.654 | C=CC(=O)Nc1cc(Nc2cc(-c3ccc4c(cnn4CC)c3)ncn2)c(OC)cc1N(C)C1CCN(C)C1 (stereo not shown) [compound 112] | 72.7
0.0566 | 0.0456 | 1.36 | C=CC(=O)Nc1cc(Nc2nccc(-c3ccc4c(cnn4C)c3)n2)c(OC)cc1N1CCN(CCN(C)C)CC1 [compound 113] | 24.0
0.0315 | 0.0327 | 1.48 | C=CC(=O)Nc1cc(Nc2nccc(-c3ccc4c(cnn4C)c3)n2)c(OC(F)F)cc1N1CCN(CCN(C)C)CC1 [compound 114] | 46.9
0.0113 | 0.0112 | 0.679 | C=CC(=O)Nc1cc(Nc2cc(-c3ccc4c(cnn4C)c3)ncn2)c(OCC)cc1N1CCN(CCN(C)C)CC1 [compound 117] | 60.1
0.0199 | 0.0236 | 1.06 | C=CC(=O)Nc1cc(Nc2cc(-c3ccc4c(cnn4CC)c3)ncn2)c(OC)cc1N(C)CCN1CCN(C)CC1 [compound 118] | 53.2
0.0231 | 0.0178 | 1.25 | C=CC(=O)Nc1cc(Nc2cc(-c3ccc4c(cnn4C)c3)ncn2)c(OCC)cc1N(C)CCN1CCN(C)CC1 [compound 119] | 54.0

The remaining lines, values behind:

Compound | IC50 (NCI-H1975) [µM] | IC50 (PC-9) [µM] | IC50 (A-431) [µM] | A-431/NCI-H1975 Selectivity (NCI-H1975)
C=CC(=O)Nc1cc(Nc2cc(-c3ccc4cnn(C)c4c3)ncn2)c(OC)cc1N(C)CCCN(C)C [compound 79] | 0.0736 | 0.0679 | 1.1 | 15
C=CC(=O)Nc1cc(Nc2cc(-c3ccc4cnn(C)c4c3)ncn2)c(OC)cc1N(C)CCN(CC)CC [compound 80] | 0.043 | 0.0359 | 0.586 | 13.6
C=CC(=O)Nc1cc(Nc2cc(-c3ccc4ncsc4c3)ncn2)c(OC)cc1N(C)C1CCN(C)CC1 [compound 81] | 0.0287 | 0.0264 | 1.38 | 48.1
C=CC(=O)Nc1cc(Nc2cc(-c3ccc4ncsc4c3)ncn2)c(OC)cc1N1C[C@@H](C)N(C)[C@@H](C)C1 [compound 82] | 0.024 | 0.0296 | 1.09 | 45.6
C=CC(=O)Nc1cc(Nc2cc(-c3ccc4c(cnn4C(C)C)c3)ncn2)c(OC)cc1N1C[C@@H](C)N(C)[C@@H](C)C1 [compound 83] | 0.0672 | 0.0779 | 1.52 | 22.6
C=CC(=O)Nc1cc(Nc2cc(-c3ccc4c(cnn4C(C)C)c3)ncn2)c(OC)cc1N1CCC(N2CCN(C)CC2)CC1 [compound 84] | 0.0344 | 0.0275 | 0.988 | 28.7
C=CC(=O)Nc1cc(Nc2cc(-c3ccc4c(cnn4C(C)C)c3)ncn2)c(OC)cc1N(C)C1CCN(C)CC1 [compound 85] | 0.0723 | 0.0567 | 1.84 | 25.4
C=CC(=O)Nc1cc(Nc2cc(-c3ccc4c(cnn4C(C)C)c3)ncn2)c(OC)cc1N1CCC(C2CCN(C)CC2)CC1 [compound 86] | 0.0916 | 0.0764 | 1.78 | 19.4
C=CC(=O)Nc1cc(Nc2cc(-c3ccc4c(cnn4C(C)C)c3)ncn2)c(OC)cc1N(C)C1CCN(C2CCN(C)CC2)CC1 [compound 87] | 0.114 | 0.0776 | 1.96 | 17.2
C=CC(=O)Nc1cc(Nc2cc(-c3ccc4c(cnn4C)c3)ncn2)c(OC)cc1N(C)CCN(C)CC [compound 88] | 0.0061 | 0.0072 | 0.987 | 161.8
C=CC(=O)Nc1cc(Nc2cc(-c3ccc4c(cnn4CC)c3)ncn2)c(OCC)cc1N(C)CCN(C)C [compound 89] | 0.0199 | 0.0148 | 0.954 | 48.0
C=CC(=O)Nc1cc(Nc2cc(-c3ccc4c(cnn4C)c3)ncn2)c(OCC)cc1N1C[C@@H](C)N(C)[C@@H](C)C1 [compound 90] | 0.0265 | 0.0155 | 1.75 | 66.2
C=CC(=O)Nc1cc(Nc2cc(-c3ccc4c(cnn4CC)c3)ncn2)c(OCC)cc1N1C[C@@H](C)N(C)[C@@H](C)C1 [compound 91] | 0.0622 | 0.0472 | 1.32 | 21.3
C=CC(=O)Nc1cc(Nc2cc(-c3ccc4c(cnn4CC)c3)ncn2)c(OC(F)F)cc1N(C)CCN(C)C [compound 92] | 0.0093 | 0.0131 | 0.764 | 82.1
C=CC(=O)Nc1cc(Nc2cc(-c3ccc4c(cnn4C)c3)ncn2)c(OCC)cc1N(C)CCN(CC)CC [compound 93] | 0.0205 | 0.0185 | 0.854 | 41.7
C=CC(=O)Nc1cc(Nc2cc(-c3ccc4c(cnn4CC)c3)ncn2)c(OCC)cc1N(C)CCN(CC)CC [compound 94] | 0.0478 | 0.0557 | 2.04 | 42.6
C=CC(=O)Nc1cc(Nc2cc(-c3ccc4c(cnn4C)c3)ncn2)c(OC(F)F)cc1N(C)CCN(CC)CC [compound 95] | 0.0067 | 0.0122 | 0.997 | 148.9
C=CC(=O)Nc1cc(Nc2cc(-c3ccc4c(cnn4CC)c3)ncn2)c(OC(F)F)cc1N(C)CCN(CC)CC [compound 96] | 0.0137 | 0.0108 | 0.945 | 69
C=CC(=O)Nc1cc(Nc2cc(-c3ccc4c(cnn4C)c3)ncn2)c(OC(F)F)cc1N1C[C@@H](C)N(C)[C@@H](C)C1 [compound 97] | 0.0331 | 0.0226 | 0.798 | 24.1
